| SMILES | melting point |
| --- | --- |
| CC(=O)NCc1ccc(/C(Nc2ccc(CNC(=O)OC(C)(C)C)cc2)=C2/C(=O)Nc3ccc([N+](=O)[O-])cc32)cc1 [Example 150, (Z)-3-[1-(4-tert.butoxycarbonylaminomethyl-phenylamino)-1-(4-acetylaminomethyl-phenyl)-methylidene]-5-nitro-2-indolinone] | 234 °C (dec.) |
| CN(Cc1ccc(N/C(=C2\C(=O)Nc3ccc([N+](=O)[O-])cc32)c2ccccc2)cc1)C1CCCC1 [Example 277, (Z)-3-{1-[4-(N-cyclopentyl-N-methyl-aminomethyl)-phenylamino]-1-phenyl-methylidene}-5-nitro-2-indolinone] | 228 °C |
| Cl.NCC(=O)NCc1ccc(N/C(=C2\C(=O)Nc3ccccc32)c2ccccc2)cc1 | 190 to 195 °C |
| O=C(O)COc1ccc(N/C(=C2\C(=O)Nc3ccccc32)c2ccccc2)cc1 [Example 290, (Z)-3-{1-[4-(carboxymethyloxy)-phenylamino]-1-phenyl-methylidene}-2-indolinone] | 238 to 240 °C |
| C[C@H](NC(=O)OC(C)(C)C)c1ccc(N/C(=C2\C(=O)Nc3ccc([N+](=O)[O-])cc32)c2ccccc2)cc1 [Example 123, (Z,S)-3-{1-[4-(1-tert.butoxycarbonylamino-ethyl)-phenylamino]-1-phenyl-methylidene}-5-nitro-2-indolinone] | 247 to 249 °C (dec.) |
| CCN(CC)CC(=O)Nc1ccc(N/C(=C2\C(=O)Nc3ccc([N+](=O)[O-])cc32)c2ccccc2)cc1.Cl | 287 to 288 °C |
| CC(=O)N(C)c1cccc(N/C(=C2\C(=O)Nc3ccccc32)c2ccccc2)c1 [Example 38, (Z)-3-{1-[3-(N-acetyl-N-methylamino)-phenylamino]-1-phenyl-methylidene}-2-indolinone] | 237 to 239 °C |
| Cl.NCc1ccc(N/C(=C2\C(=O)Nc3ccc([N+](=O)[O-])cc32)c2ccccc2)cc1 | > 370 °C |
| CS(=O)(=O)N(CC(=O)O)c1ccc(N/C(=C2\C(=O)Nc3ccc([N+](=O)[O-])cc32)c2ccccc2)cc1 [Example 199, (Z)-3-{1-[4-(N-carboxymethyl-N-methylsulphonyl-amino)-phenyl-amino]-1-phenyl-methylidene}-5-nitro-2-indolinone] | 180 to 183 °C |
| Cc1cccc(N/C(=C2\C(=O)Nc3ccccc32)c2ccccc2)c1 [Example 6, (Z)-3-[1-(3-methyl-phenylamino)-1-phenyl-methylidene]-2-indolinone] | 218 to 220 °C |
| COC(=O)c1ccccc1N/C(=C1\C(=O)Nc2ccccc21)c1ccccc1 [Example 7, (Z)-3-[1-(2-methoxycarbonyl-phenylamino)-1-phenyl-methylidene]-2-indolinone] | 241 to 244 °C |
| COC(=O)Cc1ccc(N/C(=C2\C(=O)Nc3ccc([N+](=O)[O-])cc32)c2ccccc2)cc1 [Example 180, (Z)-3-[1-(4-methoxycarbonylmethyl-phenylamino)-1-phenyl-methylidene]-5-nitro-2-indolinone] | 238 to 240 °C |
| CCS(=O)(=O)N(CCN1CCOCC1)c1ccc(N/C(=C2\C(=O)Nc3ccccc32)c2ccccc2)cc1 [Example 308, (Z)-3-{1-[4-(N-(2-morpholinoethyl)-N-ethylsulphonyl-amino)-phenylamino]-1-phenyl-methylidene}-2-indolinone] | 222 to 224 °C |
| CCN(CC)CCc1ccc(N/C(=C2\C(=O)Nc3ccc([N+](=O)[O-])cc32)c2ccccc2)cc1 [Example 130, (Z)-3-{1-[4-(2-diethylamino-ethyl)-phenylamino]-1-phenyl-methylidene}-5-nitro-2-indolinone] | 167 to 168 °C |
| C[C@@H](N)c1ccc(N/C(=C2\C(=O)Nc3ccc([N+](=O)[O-])cc32)c2ccccc2)cc1.Cl | 230 to 235 °C |
| CN(C)CCNC(=O)c1ccc(N/C(=C2\C(=O)Nc3ccccc32)c2ccccc2)cc1 [Example 390, (Z)-3-{1-[4-(2-dimethylamino-ethylaminocarbonyl)-phenylamino]-1-phenyl-methylidene}-2-indolinone] | 145 to 147 °C |
| CN(C)CCN(C)CC(=O)N(C)c1ccc(N/C(=C2\C(=O)Nc3ccccc32)c2ccccc2)cc1 [Example 375, (Z)-3-{1-[4-(N—(N-(2-dimethylaminoethyl)-N-methyl-aminomethylcarbonyl)-N-methylamino)-phenylamino]-1-phenyl-methylidene}-2-indolinone] | 167 to 169 °C |

Further lines, results first:

| melting point | SMILES |
| --- | --- |
| 236 to 238 °C | CCOC(=O)CN(c1ccc(N/C(=C2\C(=O)Nc3ccc([N+](=O)[O-])cc32)c2ccccc2)cc1)S(C)(=O)=O [Example 198, (Z)-3-{-[4-(N-ethoxycarbonylmethyl-N-methylsulphonyl-amino)-phenylamino]-1-phenyl-methylidene}-5-nitro-2-indolinone] |
| 206 to 207 °C | COc1ccc(/C(Nc2ccc(CN(C)C)cc2)=C2/C(=O)Nc3ccccc32)cc1 [Example 215, (Z)-3-[1-(4-dimethylaminomethyl-phenylamino)-1-(4-methoxyphenyl)-methylidene]-2-indolinone] |
| 260 to 262 °C | CNC(=O)CN(C(=O)c1ccccc1)c1ccc(N/C(=C2\C(=O)Nc3ccccc32)c2ccccc2)cc1 [Example 362, (Z)-3-{1-[4-(N-methylaminocarbonylmethyl-N-benzoyl-amino)-phenylamino]-1-phenyl-methylidene}-2-indolinone] |
| 197 to 199 °C | CN(C)CCN(C)C(=O)CN(c1cccc(N/C(=C2\C(=O)Nc3ccccc32)c2ccccc2)c1)S(C)(=O)=O [Example 323, (Z)-3-{1-[3-(N—((N-(2-dimethylaminoethyl)-N-methyl-amino)-carbonylmethyl)-N-methylsulphonyl-amino)-phenylamino]-1-phenyl-methylidene}-2-indolinone] |
| 230 to 235 °C | COC(=O)CNC(=O)c1ccc(/C(Nc2ccc(CN3CCCCC3)cc2)=C2/C(=O)Nc3ccc([N+](=O)[O-])cc32)cc1 [Example 446, (Z)-3-[1-(4-piperidinomethyl-phenylamino)-1-(4-methoxycarbonylmethylaminocarbonyl-phenyl)-methylidene]-5-nitro-2-indolinone] |
| 195 to 198 °C | CN(Cc1ccccc1)Cc1ccc(N/C(=C2\C(=O)Nc3ccc([N+](=O)[O-])cc32)c2ccc(Cn3ccnc3)cc2)cc1 [Example 440, (Z)-3-{1-[4-(N-benzyl-N-methyl-aminomethyl)-phenylamino]-1-[4-(imidazol-1-ylmethyl)-phenyl]-methylidene}-5-nitro-2-indolinone] |
| 269 °C | Nc1ccc(N/C(=C2\C(=O)Nc3ccc([N+](=O)[O-])cc32)c2ccccc2)cc1 [Example 91, (Z)-3-[1-(4-aminophenylamino)-1-phenyl-methylidene]-5-nitro-2-indolinone] |
| 222 to 225 °C | O=C1Nc2ccc([N+](=O)[O-])cc2/C1=C(/Nc1ccc(CN2CC=CCC2)cc1)c1ccccc1 [Example 270, (Z)-3-{1-[4-(3,6-Dihydro-2H-pyridin-1-ylmethyl)-phenylamino]-1-phenyl-methylidene}-5-nitro-2-indolinone] |
| 244 °C | CN(C)CCN(c1ccc(N/C(=C2\C(=O)Nc3ccccc32)c2ccccc2)cc1)S(=O)(=O)Cc1ccccc1 [Example 314, (Z)-3-{1-[4-(N-(2-dimethylaminoethyl)-N-benzylsulphonyl-amino)-phenylamino]-1-phenyl-methylidene}-2-indolinone] |
| 186 to 187 °C | CC1(O)CCN(Cc2ccc(N/C(=C3\C(=O)Nc4ccc([N+](=O)[O-])cc43)c3ccccc3)cc2)CC1 [Example 251, (Z)-3-{1-[4-(4-hydroxy-4-methyl-piperidinomethyl)-phenylamino]-1-phenyl-methylidene}-5-nitro-2-indolinone] |
| 223 to 226 °C | Cc1ccc(S(=O)(=O)N(CC(=O)N(C)C)c2ccc(N/C(=C3\C(=O)Nc4ccccc43)c3ccccc3)cc2)cc1 [Example 206, (Z)-3-{1-[4-(N-dimethylaminocarbonylmethyl-N-(p-tolylsulphonyl)-amino)-phenylamino]-1-phenyl-methylidene}-2-indolinone] |
| 228 to 229 °C | O=C1Nc2ccc([N+](=O)[O-])cc2/C1=C(/Nc1ccc(CN2CCC2)cc1)c1ccccc1 [Example 273, (Z)-3-{1-[4-(Azetidin-1-yl-methyl)-phenylamino]-1-phenyl-methylidene}-5-nitro-2-indolinone] |
| 245 to 247 °C | O=C(O)CNC(=O)c1ccc(N/C(=C2\C(=O)Nc3ccccc32)c2ccccc2)cc1 [Example 393, (Z)-3-{1-[4-(carboxymethylaminocarbonyl)-phenylamino]-1-phenyl-methylidene}-2-indolinone] |
| 263 to 265 °C | CCC(=O)N(CCN(C)C)c1ccc(N/C(=C2\C(=O)Nc3ccc([N+](=O)[O-])cc32)c2ccccc2)cc1 [Example 329, (Z)-3-{1-[4-(N-(2-dimethylaminoethyl)-N-propionyl-amino)-phenylamino]-1-phenyl-methylidene}-5-nitro-2-indolinone] |
| 167 °C | CS(=O)(=O)N(CC(N)=O)c1cccc(N/C(=C2\C(=O)Nc3ccccc32)c2ccc(CN)cc2)c1 [Example 416, (Z)-3-{1-[3-(N-aminocarbonylmethyl-N-methylsulphonyl-amino)-phenylamino]-1-(4-aminomethyl-phenyl)-methylidene}-2-indolinone] |
| 218 to 220 °C | CN(CC(=O)O)C(=O)c1cccc(N/C(=C2\C(=O)Nc3ccccc32)c2ccccc2)c1 [Example 26, (Z)-3-{1-[3-(N-carboxymethyl-N-methyl-aminocarbonyl)-phenyl-amino]-1-phenyl-methylidene}-2-indolinone] |
| 246 to 248 °C | CN(C)CCN(C=O)c1ccc(N/C(=C2\C(=O)Nc3ccccc32)c2ccccc2)cc1 [Example 339, (Z)-3-{1-[4-(N-(2-dimethylaminoethyl)-N-formyl-amino)-phenylamino]-1-phenyl-methylidene}-2-indolinone] |
| 248 °C | CN(C)CCN(c1ccc(N/C(=C2\C(=O)Nc3ccc([N+](=O)[O-])cc32)c2ccccc2)cc1)S(=O)(=O)Cc1ccccc1 [Example 313, (Z)-3-{1-[4-(N-(2-dimethylaminoethyl)-N-benzylsulphonyl-amino)-phenylamino]-1-phenyl-methylidene}-5-nitro-2-indolinone] |
